For one assay, the target named is IRAK4 enzyme (Homo sapiens (Human), UniProt Q9NWZ3). The assay can be described thus: biochemical. It counts as biochemical. To be noted: IRAK4 enzyme, TR-FRET, 500 μM ATP. (In general: In TR-FRET formats the signal depends on donor and acceptor labels being close together.)
The next assay has as its system TNFα. In words: cells. The conditions noted are these: Homo sapiens, Monocyte, LPS-stimulated human monocytes, TNFα content; read-out: EC50 TNF. It counts as cell-based, human.

As a reminder, the pIC50 is the negative decadic logarithm of the IC50, by convention in mol/L. Read a low pIC50 as a high IC50. Usually pEC50 stands for the negative decadic logarithm of the EC50, by convention in mol/L.

pEC50, pIC50: −log10 of the molar value.

IRAK4 enzyme, sequence (Q9NWZ3 whole entry): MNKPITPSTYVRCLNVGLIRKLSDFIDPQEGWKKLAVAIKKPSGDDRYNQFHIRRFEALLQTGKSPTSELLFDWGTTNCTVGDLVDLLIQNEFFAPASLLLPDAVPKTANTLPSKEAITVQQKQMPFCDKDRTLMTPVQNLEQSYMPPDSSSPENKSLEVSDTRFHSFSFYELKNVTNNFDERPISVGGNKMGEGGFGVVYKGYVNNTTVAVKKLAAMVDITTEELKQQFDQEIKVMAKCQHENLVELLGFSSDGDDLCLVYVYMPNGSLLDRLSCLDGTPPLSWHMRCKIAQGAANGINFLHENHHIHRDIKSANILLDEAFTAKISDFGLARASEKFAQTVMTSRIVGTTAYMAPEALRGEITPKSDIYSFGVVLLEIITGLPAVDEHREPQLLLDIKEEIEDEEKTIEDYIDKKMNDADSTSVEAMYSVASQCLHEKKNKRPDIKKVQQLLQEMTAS
Procedure for TNFα: IRAK4 Monocyte TNFα Cell Based Assay Procedure:
The cell suspension was then plated at a density of 5,000 cells/well onto black 384 well Greiner clear bottom plates. Plates were pre-spotted with test compounds and serially diluted in DMSO where 200 nL/well were delivered using the Echo 550 acoustic liquid dispenser (Labcyte®) for a final DMSO concentration of 0.5%. Plated cells were treated with compound for 1 hour at 37° C. Cells were then stimulated with 50 pg/ml of LPS (Sigma) excluding outside columns of plate used for unstimulated cell control wells. Cells were incubated for an additional 4 hours at 37° C. Cells were then spun out of the media and 5 μl of sample were taken and analyzed for total TNFα content using the TR-FRET Human TNFα detection system (CisBio). This system utilizes two labeled antibodies (cryptate and XL665) that bind to two different epitopes of the TNFα molecule and produce FRET signal proportional to the concentration of TNFα in the sample. Detection antibodies are mixed 50:50 and 5 μL were dispensed into each well. Plates were covered with clear seals and incubated at room temp overnight. […] Percent of control was calculated as follows: % Control=100×(RatioSample−Ratio0% stimulation)/(Ratio100% Stimulation−Ratio0% Stimulation) where unstimulated cells (0% stimulation) were the negative control and stimulated cells (100% stimulation) were used as the positive control.

At IRAK4 enzyme, `COC(=O)[C@H](C)NC(=O)c1cnc(-c2ccc3cc(C#N)cnn23)cc1NC12CCC(O)(CC1)CC2` [Example 339, methyl (6-(3-cyano-pyrrolo[1,2-b]pyridazin-7-yl)-4-((4-hydroxy-bicyclo[2.2.2]octan-1-yl)amino)nicotinoyl)-L-alaninate] showed a negative-log IC50 (pIC50) of 9.00. Moreover, the pEC50 in the assay on TNFα is 6.58.
`COC(=O)[C@@H](C)NC(=O)c1cnc(-c2ccc3cc(C#N)cnn23)cc1NC12CCC(O)(CC1)CC2` [Example 340, methyl (6-(3-cyano-pyrrolo[1,2-b]pyridazin-7-yl)-4-((4-hydroxy-bicyclo[2.2.2]octan-1-yl)amino)nicotinoyl)-D-alaninate] gave a pIC50 against IRAK4 enzyme of 9.00. In addition, the pEC50 in the assay on TNFα was 6.86.
`COC(=O)CNC(=O)c1cnc(-c2ccc3cc(C#N)cnn23)cc1NC12CCC(O)(CC1)CC2` [Example 341, methyl (6-(3-cyano-pyrrolo[1,2-b]pyridazin-7-yl)-4-((4-hydroxy-bicyclo[2.2.2]octan-1-yl)amino)nicotinoyl) glycinate]: the pIC50 at IRAK4 enzyme is greater than 9.00. The pEC50 in the assay on TNFα is 7.80.
In turn, `CC(C)(CCNC(=O)c1cnc(-c2ccc3cc(C#N)cnn23)cc1NC12CCC(O)(CC1)CC2)NS(C)(=O)=O` [Example 342, 6-(3-cyanopyrrolo[1,2-b]pyridazin-7-yl)-4-((4-hydroxybicyclo[2.2.2]octan-1-yl)amino)-N-(3-methyl-3-(methyl-sulfonamido)butyl) nicotinamide] showed a negative-log IC50 (pIC50) on IRAK4 enzyme of 9.00. In addition, in the assay with TNFα, the pEC50 is 7.08.
For the molecule `COC(=O)NC(C)(C)CCNC(=O)c1cnc(-c2ccc3cc(C#N)cnn23)cc1NC12CCC(O)(CC1)CC2` [Example 343, Methyl (4-(6-(3-cyanopyrrolo[1,2-b]pyridazin-7-yl)-4-((4-hydroxybicyclo[2.2.2]octan-1-yl)amino)nicotinamido)-2-methylbutan-2-yl)carbamate], the pIC50 against IRAK4 enzyme was 9.00. For the same molecule, the pEC50 in the assay with TNFα is 7.42.
`CC(=O)NC(C)(C)CCNC(=O)c1cnc(-c2ccc3cc(C#N)cnn23)cc1NC12CCC(O)(CC1)CC2` [Example 344, N-(3-acetamido-3-methylbutyl)-6-(3-cyanopyrrolo[1,2-b]pyridazin-7-yl)-4-((4-hydroxybicyclo[2.2.2]octan-1-yl)amino) nicotinamide]: the pIC50 against IRAK4 enzyme was 8.70. The negative logarithm of the EC50 (pEC50) in the assay on TNFα was 7.32.
The like results for `CC(C)(N)CCNC(=O)c1cnc(-c2ccc3cc(C#N)cnn23)cc1NC12CCC(O)(CC1)CC2` [Example 345, N-(3-amino-3-methylbutyl)-6-(3-cyanopyrrolo[1,2-b]pyridazin-7-yl)-4-((4-hydroxybicyclo[2.2.2]octan-1-yl)amino)nicotinamide] were, in that order, 9.00 and 6.94.
The molecule `N#Cc1cnn2c(-c3cc(NC45CCC(O)(CC4)CC5)c(C(=O)NCCC4CCCO4)cn3)ccc2c1` (centres unmarked) [Example 346, 6-(3-cyanopyrrolo[1,2-b]pyridazin-7-yl)-4-((4-hydroxybicyclo[2.2.2]octan-1-yl)amino)-N-(2-(tetrahydrofuran-2-yl)ethyl)nicotinamide] showed a negative logarithm of the IC50 (pIC50) against IRAK4 enzyme of 9.00. The pEC50 with TNFα was 7.74.
Turning to `CC(C)(CCNC(=O)c1cnc(-c2ccc3cc(C#N)cnn23)cc1NC12CCC(O)(CC1)CC2)NC(=O)OC(C)(C)C` [Example 347, tert-butyl (4-(6-(3-cyanopyrrolo[1,2-b]pyridazin-7-yl)-4-((4-hydroxybicyclo[2.2.2]octan-1-yl)amino)nicotinamido)-2-methyl-butan-2-yl)carbamate], the pIC50 on IRAK4 enzyme is 8.70. Also, in the assay on TNFα, the pEC50 is 7.35.
Consider `N#CCNC(=O)c1cnc(-c2ccc3cc(C#N)cnn23)cc1NC12CCC(O)(CC1)CC2` [Example 348, N-(cyanomethyl)-6-(3-cyanopyrrolo[1,2-b]pyridazin-7-yl)-4-((4-hydroxybicyclo[2.2.2]octan-1-yl)amino) nicotinamide], for which the pIC50 against IRAK4 enzyme is greater than 9.00. Further, the pEC50 in the assay on TNFα was 7.72.
